Patent US8198099B2, “Mechanism to signal receptor-ligand interactions with luminescent quantum dots” (The University of Miami, priority 2006, dated 2012)

Key:
[1] = Stern-Volmer quenching of quantum dot luminescence by bipyridinium quenchers; type: binding; details: for Stern-Volmer constant: linear (static) region of plot, quantum dots 1.5 μM, sodium phosphate buffer, pH=7.8, 20° C., λEx=350 nm
Procedure: (§1) The emission spectra (λEx=350 nm) of the same solution were recorded before (b) and after the consecutive addition of 1 (c, 4.1 μM) and 3 (d, 21 μM). Also shown is a Stern-Volmer plot (e) of hydrophilic CdSe—ZnS core-shell quantum dots (1.5 μM, sodium phosphate buffer, pH=7.8, 20° C., λEx=350 nm) upon addition of increasing amounts of 1.
(§2) Also shown is a Stern-Volmer plot (d) of hydrophilic CdSe—ZnS core-shell quantum dots (1.5 μM, sodium phosphate buffer, pH=7.8, 20° C., λEx=350 nm) after addition of increasing amounts of 2.
Indeed, bipyridinium dications are known to accept electrons from excited CdSe and CdSe—ZnS core-shell quantum dots, quenching their luminescence.36-37 The corresponding Stern-Volmer plot (e in FIG. 2) deviated from linearity at quencher concentrations greater than about 2.5 μM. […] These observations are consistent with the adsorbance of the dicationic quencher on the surface of the hydrophilic quantum dots as a result of electrostatic interactions with their anionic carboxylate groups.
In order to test the potential of our operating principles to signal receptor-ligand interactions, we designed a compound (2 in FIG. 3) integrating a bipyridinium quencher and a biotin ligand within the same molecular skeleton and prepared this molecule in two synthetic steps (see FIG. 6). Once again, the luminescence of the hydrophilic quantum dots decreases upon exposure to 2 (a and b in FIG. 7) (the addition of either 1 or 2 to a solution of the quantum dots has no influence on the visible region of the absorption spectrum). […]
(§3) Methods. […] Infrared absorption spectra were recorded with a Perkin-Elmer Spectrum One Fourier transform spectrometer. Visible absorption spectra were recorded with a Varian Cary 100 Bio spectrometer, using quartz cells with a path length of 0.5 cm. Emission spectra were recorded with a Varian Cary Eclipse spectrometer in aerated solutions. Fast atom bombardment mass spectra (FABMS) were recorded with a VG Mass Lab Trio-2 in a 3-nitrobenzyl alcohol matrix. […]

[2] = Luminescence restoration on adding excess macrocyclic receptor 3 to quantum dots and quencher 1; type: binding; details: quantum dots 1.5 μM, 1 4.1 μM, 3 21 μM, pH=7.8, 20° C.
Procedure: as §1
The change imposed on the luminescence of the hydrophilic quantum dots by the quencher 1 can be reversed with the addition of an excess of cucurbituril (3 in FIG. 3). Indeed, this particular macrocyclic receptor is known to bind bipyridinium dications with high association constants in aqueous solutions.^36-39 Consistently, the emission spectrum (d in FIG. 2) recorded in the presence of an excess of 3 relative to 1 closely resembles the one recorded before the addition of 1 (b). The infrared spectra recorded before (b in FIG. 4) and after (c in FIG. 4) treatment of the CdSe—ZnS core-shell quantum dots with mercaptoacetic acid and potassium hydroxide show the disappearance of the [C—H] stretching vibrations at 2800 cm^−1 to […] (a) for hydrophobic ligands and the appearance of the [C═O] stretching vibrations at 1300 cm^−1 to 1700 cm^−1 (d) for the hydrophilic ones. […] In principle, the very same mechanism can be adapted to signal receptor-ligand interactions with changes in luminescence. […]

[3] = Control: receptor added to quantum dots without bipyridinium quenchers; details: in the absence of bipyridinium quenchers
streptavidin = biological target: T1, streptavidin (Streptomyces avidinii, UniProt P22629); assay: Luminescence enhancement on adding streptavidin to quantum dots and quencher-biotin 2; type: binding; details: quantum dots 1.5 μM, 2 4.1 μM, streptavidin 21 μM (large excess), pH=7.8, 20° C.
T1 construct: purchased
Procedure: as §2
(§4) The addition of increasing amounts of streptavidin to a mixture of the hydrophilic quantum dots and 2 leads to a luminescence enhancement (c in FIG. 7). The addition of 3, streptavidin or bovine serum albumin to a solution of the hydrophilic quantum dots has no influence on the emission spectrum in the absence of bipyridinium quenchers. Instead, the addition of bovine serum albumin has no influence of the emission spectrum under otherwise identical conditions (FIG. 8). […] The luminescence increases only by 30% after the association of 2 and streptavidin, while it grows by 80% after the interaction of 1 and 3. […] Presumably, an adjustment in the length of the aliphatic spacer connecting the quencher to the ligand in 2 can be invoked to improve the luminescence enhancement upon streptavidin binding.
as §3, with “solutions.” for “solutions. Fast atom bombardment mass spectra (FABMS) were recorded with a VG Mass Lab Trio-2 in a 3-nitrobenzyl alcohol matrix.”

bovine serum albumin = biological target: T2, bovine serum albumin (Bos taurus, UniProt P02769); assay: Specificity control: bovine serum albumin added to quantum dots and 2; type: binding; details: quantum dots 1.5 μM, 2 4.1 μM, bovine serum albumin 7.4 μM, pH=7.8, 20° C.
T2 construct: purchased
T2 sequence (P02769 25-607): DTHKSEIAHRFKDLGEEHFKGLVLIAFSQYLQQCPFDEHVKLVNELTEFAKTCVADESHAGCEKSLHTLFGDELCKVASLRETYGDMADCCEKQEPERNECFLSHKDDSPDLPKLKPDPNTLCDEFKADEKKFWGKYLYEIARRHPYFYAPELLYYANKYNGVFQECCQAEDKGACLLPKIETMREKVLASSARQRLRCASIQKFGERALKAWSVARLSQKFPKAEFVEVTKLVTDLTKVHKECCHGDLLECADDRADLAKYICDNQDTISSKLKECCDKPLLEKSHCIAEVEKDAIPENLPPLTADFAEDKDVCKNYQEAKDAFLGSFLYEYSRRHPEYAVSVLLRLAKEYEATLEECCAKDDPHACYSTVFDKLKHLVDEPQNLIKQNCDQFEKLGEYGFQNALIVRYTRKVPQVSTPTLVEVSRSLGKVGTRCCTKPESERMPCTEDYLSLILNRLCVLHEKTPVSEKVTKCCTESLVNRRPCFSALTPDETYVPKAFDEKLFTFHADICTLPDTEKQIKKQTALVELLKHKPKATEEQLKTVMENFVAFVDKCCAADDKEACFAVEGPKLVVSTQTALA
Description: as §4
Methods. […] Infrared absorption spectra were recorded with a Perkin-Elmer Spectrum One Fourier transform spectrometer. Visible absorption spectra were recorded with a Varian Cary 100 Bio spectrometer, using quartz cells with a path length of 0.5 cm. Emission spectra were recorded with a Varian Cary Eclipse spectrometer in aerated solutions. Fast atom bombardment mass spectra (FABMS) were recorded with a VG Mass Lab Trio-2 in a 3-nitrobenzyl alcohol matrix. Nuclear magnetic resonance (NMR) spectra were recorded with Bruker Avance 400 and 500 spectrometers.

| effect on the emission spectrum of the quantum dots [3] | Compound | Stern-Volmer constant [1] | further results |
| --- | --- | --- | --- |
| no influence | O=C1N2CN3C(=O)N4CN5C(=O)N6CN7C(=O)N8CN9C(=O)N%10CN%11C(=O)N%12CN1C1C2N2CN%13C(=O)N(CN%14C(=O)N(CN%15C(=O)N(CN%16C(=O)N(CN%17C(=O)N(CN1C2=O)C%12C%11%17)C%10C9%16)C8C7%15)C6C5%14)C4C3%13 (stereo not drawn) [compound 3, cucurbituril, reference compound] | – | – |
| no influence | streptavidin: protein receptor that binds the biotin ligand of 2 | – | – |

Second part, the compound before the results:

| Compound | effect on the emission spectrum of the quantum dots [3] | Stern-Volmer constant [1] | further results |
| --- | --- | --- | --- |
| C[n+]1ccc(-c2cc[n+](C)cc2)cc1 [compound 1, methyl viologen, reference compound] | – | about 0.45 μM^−1 | luminescence increase after interaction with 3 [2]: 80% |
| bovine serum albumin: control protein that does not bind biotin | no influence | – | – |
| C[n+]1ccc(-c2cc[n+](CCCOCCCCCC3SCC4NC(=O)NC43)cc2)cc1.[I-].[I-] (stereo not drawn) [compound 2, 1-Methyl-1′-(3-(5-(2-Oxohexahydrothieno[3,4-d]imidazol-6-yl)-pentanoxy)-propyl)-4,4′-Bipyridinium Bisiodide] | – | about 0.22 μM^−1 | luminescence increase after association with streptavidin (streptavidin): 30%; effect of bovine serum albumin on the emission spectrum (bovine serum albumin): no influence; decrease in the Stern-Volmer constant relative to 1 ([1]; same conditions as the Stern-Volmer plots): about 0.23 μM^−1 |
